Laboratory results as given in ChEMBL document CHEMBL6078649, “Discovery of Chalcone Derivatives as Bifunctional Molecules with Anti-SARS-CoV-2 and Anti-inflammatory Activities” (J Nat Prod, 2024).

Experiments:
[1] = test system: RAW264.7; assay: Anti-inflammatory activity against mouse RAW264.7 cells assessed as inhibition of LPS-induced NO production at 1 uM preincubated for 1 hr followed by LPS treatment measured after 24 hrs relative to control; format: functional; settings: time 25 hrs
[2] = Cytotoxicity against mouse RAW264.7 cells assessed as cell viability at 50 uM incubated for 24 hrs by CCK8 assay relative to control; format: toxicity, cell-based; settings: read-out: Activity
[3] = Cytotoxicity against mouse RAW264.7 cells assessed as cell viability at 1 uM incubated for 24 hrs by CCK8 assay relative to control; format: toxicity, cell-based; settings: read-out: Activity
[4] = Cytotoxicity against mouse RAW264.7 cells assessed as cell viability at 10 uM incubated for 24 hrs by CCK8 assay relative to control; format: toxicity, cell-based; settings: read-out: Activity
[5] = biological target: Replicase polyprotein 1ab (Severe acute respiratory syndrome coronavirus 2, UniProt P0DTD1)
[6] = biological target: Replicase polyprotein 1ab (Severe acute respiratory syndrome coronavirus 2) (UniProt P0DTD1); assay: Inhibition of SARS-CoV-2 3CLPro using DabcylKNSTLQSGLRK-Edans as substrate at 5 uM preincubated for 30 mins followed by substrate addition measured after 20 mins by FRET assay relative to control; settings: time 50.0 min
[7] = test system: RAW264.7; assay: Anti-inflammatory activity against mouse RAW264.7 cells assessed as inhibition of LPS-induced NO production at 10 uM preincubated for 1 hr followed by LPS treatment measured after 24 hrs relative to control; format: functional; settings: time 25 hrs
[8] = biological target: Replicase polyprotein 1ab (Severe acute respiratory syndrome coronavirus 2) (UniProt P0DTD1); assay: Inhibition of SARS-CoV-2 3CLPro using DabcylKNSTLQSGLRK-Edans as substrate at 50 uM preincubated for 30 mins followed by substrate addition measured after 20 mins by FRET assay relative to control; settings: time 50.0 min
[9] = Cytotoxicity against human Huh-7 cells harboring viral replicon/EGFP/Neo genes assessed as cell viability incubated for 24 hrs by Cell Titer Glo assay; format: toxicity, cell-based
[10] = Cytotoxicity against human Huh-7 cells harboring viral replicon/EGFP/Neo genes assessed as cell viability at 5 uM incubated for 24 hrs by Cell Titer Glo assay relative to control; format: toxicity, cell-based; settings: read-out: Activity
[11] = Cytotoxicity against human Huh-7 cells harboring viral replicon/EGFP/Neo genes assessed as cell viability at 50 uM incubated for 24 hrs by Cell Titer Glo assay relative to control; format: toxicity, cell-based; settings: read-out: Activity

| Compound | inhibition at 1 µM [1] | viability at 24 h, 50 µM [2] | viability at 24 h, 1 µM [3] | viability at 24 h, 10 µM [4] | IC50 [5] | inhibition [6] | inhibition at 10 µM [7] | inhibition [8] | CC50 at 24 h [9] | viability at 24 h, 5 µM [10] | viability at 24 h, 50 µM [11] |
| --- | --- | --- | --- | --- | --- | --- | --- | --- | --- | --- | --- |
| Oc1cc(CCCc2ccc(F)cc2)cc(O)c1O | -45.7% | 93.6% | 94% | 108% | 2400 nM | 18% | -14.6% | 2% | – | – | – |
| CC(=O)Oc1c(Cl)c(/C=C/C(=O)c2ccc(F)cc2)c(Cl)c(OC(C)=O)c1OC(C)=O | 37.4% | 54.1% | 93.8% | 97.5% | 247 nM | 1.1% | 85.2% | 1% | > 50000 nM | 111% | 62% |
| O=C(/C=C/c1cc(O)c(O)c(O)c1Cl)c1ccc(F)cc1 | -4.2% | 104% | 111% | 110% | 429 nM | 1.1% | 72.8% | 1.1% | – | 106% | 71.4% |
| O=C(/C=C/c1c(Cl)c(O)c(O)c(O)c1Cl)c1ccc([N+](=O)[O-])cc1 | 2.1% | 77.4% | 115% | 110% | 276 nM | 0.6% | 70.7% | -0.2% | – | 110% | 74.7% |
| O=C(/C=C/c1c(Cl)c(O)c(O)c(O)c1Cl)c1ccc(Br)cc1 | 5.2% | 12.4% | 101% | 75.7% | 794 nM | 1% | 68.6% | -0.3% | – | – | – |
| O=C(/C=C/c1c(Cl)c(O)c(O)c(O)c1Cl)c1ccco1 | 45.7% | 94.7% | 82% | 82.2% | 95.5 nM | -1.1% | 62.4% | -0.7% | – | 102% | 70.7% |
| O=C(/C=C/c1c(Cl)c(O)c(O)c(O)c1Cl)c1ccccc1 | 14.6% | 96.9% | 95.5% | 66.8% | 143 nM | 1% | 39.5% | -0.3% | – | 105% | 64.2% |
| O=C(O)CCc1c(Cl)c(O)c(O)c(O)c1Cl | 20.8% | 89.7% | 130% | 80.8% | > 5000 nM | 76.4% | -6.2% | 1% | – | – | – |
| O=C(/C=C/c1c(Cl)c(O)c(O)c(O)c1Cl)c1ccc(C(F)(F)F)cc1 | 52% | 6.9% | 76.7% | 36.6% | 442 nM | 2% | 70.7% | 1.5% | – | 101% | 43.8% |
| O=C(/C=C/c1c(Cl)c(O)c(O)c(O)c1Cl)c1c(Cl)cc(F)cc1Cl | 54.1% | 26.3% | 100% | 47.2% | 403 nM | 1.3% | 83.2% | 1.1% | – | – | – |
| O=C(/C=C/c1c(Cl)c(O)c(O)c(O)c1Cl)c1cccc(-c2ccc(Cl)c(Cl)c2)c1 | 16.6% | 4.2% | 69.1% | 29.4% | > 5000 nM | 79.3% | 70.7% | – | – | – | – |
| O=C(/C=C/c1c(Cl)c(O)c(O)c(O)c1Cl)c1ccc(Cl)cc1 | 27% | 22.6% | 81.2% | 68.7% | 630 nM | 0.4% | 81.1% | 0.4% | – | – | – |
| O=C(/C=C/c1c(Cl)c(O)c(O)c(O)c1Cl)c1ccc(O)cc1 | 16.6% | 114% | 122% | 95.6% | 192 nM | 1.3% | 37.4% | 1.9% | – | 105% | 87.9% |
